Measured values reported in the supplement of paper PMC13207355.

Key:
Settings in all cases: exposure time: 72 h
E31 [1] = patient-derived glioblastoma stem cells of proneural subtype; test: surviving fraction (nuclei count normalised to DMSO); higher = more cells surviving (less toxic)
E34 [2] = patient-derived glioblastoma stem cells of proneural subtype; test: as above
FT3469 [3] = normal neural stem cell line; test: as above
E13 [4] = patient-derived glioblastoma stem cells of classical subtype; test: as above
E21 [5] = patient-derived glioblastoma stem cells of mesenchymal subtype; test: as above
E28 [6] = patient-derived glioblastoma stem cells of classical subtype; test: as above
E57 [7] = patient-derived glioblastoma stem cells of mesenchymal subtype; test: as above
E31 [8] = test: phenotypic distance (Euclidean, principal components) from DMSO controls (arbitrary units); higher = stronger morphological change
E34 [9] = test: as above
FT3469 [10] = test: as above
E13 [11] = test: as above
E21 [12] = test: as above
E28 [13] = test: as above
E57 [14] = test: as above
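For phenotypic distance (Euclidean, principal components) from DMSO controls in this document: cell Painting imaging in 384-well plates, CellProfiler features reduced to at least 20 principal components, Euclidean distance versus same-plate DMSO vehicle wells (0.1% v/v), median over six images per well.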
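For surviving fraction (nuclei count normalised to DMSO) in this document: nuclei counted by high-content imaging of Hoechst-stained cells in laminin-coated 384-well plates, relative to 0.1% DMSO vehicle wells, with staurosporine as cell-death control.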

Clc1ccc(C(Cn2ccnc2)OCc2ccsc2Cl)c(Cl)c1 (stereo not drawn) [Tioconazole]
Settings	phenotypic distance	surviving fraction
E13 [4], 4.1 nM	–	0.996
E13 [4], 12.3 nM	–	0.959
E13 [4], 37 nM	–	1.02
E13 [4], 111.1 nM	–	0.98
E13 [4], 333.3 nM	–	0.992
E13 [4], 1000 nM	–	1.01
E13 [4], 3000 nM	–	0.857
E13 [11], 4.1 nM	0.434	–
E13 [11], 12.3 nM	0.591	–
E13 [11], 37 nM	0.952	–
E13 [11], 111.1 nM	0.719	–
E13 [11], 333.3 nM	0.807	–
E13 [11], 1000 nM	0.71	–
E13 [11], 3000 nM	0.892	–
E21 [5], 4.1 nM	–	1.05
E21 [5], 12.3 nM	–	1.01
E21 [5], 37 nM	–	0.998
E21 [5], 111.1 nM	–	1.03
E21 [5], 333.3 nM	–	1
E21 [5], 1000 nM	–	0.876
E21 [5], 3000 nM	–	0.887
E21 [12], 4.1 nM	0.639	–
E21 [12], 12.3 nM	0.48	–
E21 [12], 37 nM	0.312	–
E21 [12], 111.1 nM	0.6	–
E21 [12], 333.3 nM	0.27	–
E21 [12], 1000 nM	0.663	–
E21 [12], 3000 nM	1.33	–
E28 [6], 4.1 nM	–	1.06
E28 [6], 12.3 nM	–	1.11
E28 [6], 37 nM	–	1.05
E28 [6], 111.1 nM	–	1.13
E28 [6], 333.3 nM	–	1.03
E28 [6], 1000 nM	–	1.02
E28 [6], 3000 nM	–	0.843
E28 [13], 4.1 nM	0.718	–
E28 [13], 12.3 nM	0.644	–
E28 [13], 37 nM	0.417	–
E28 [13], 111.1 nM	0.495	–
E28 [13], 333.3 nM	0.688	–
E28 [13], 1000 nM	0.954	–
E28 [13], 3000 nM	0.695	–
E31 [1], 4.1 nM	–	0.857
E31 [1], 12.3 nM	–	0.993
E31 [1], 37 nM	–	1.08
E31 [1], 111.1 nM	–	1.11
E31 [1], 333.3 nM	–	0.972
E31 [1], 1000 nM	–	1.02
E31 [1], 3000 nM	–	0.969
E31 [8], 4.1 nM	0.731	–
E31 [8], 12.3 nM	0.483	–
E31 [8], 37 nM	0.639	–
E31 [8], 111.1 nM	0.611	–
E31 [8], 333.3 nM	0.715	–
E31 [8], 1000 nM	0.918	–
E31 [8], 3000 nM	1.46	–
E34 [2], 4.1 nM	–	1.14
E34 [2], 12.3 nM	–	0.871
E34 [2], 37 nM	–	0.929
E34 [2], 111.1 nM	–	0.959
E34 [2], 333.3 nM	–	0.947
E34 [2], 1000 nM	–	0.894
E34 [2], 3000 nM	–	0.776
E34 [9], 4.1 nM	0.558	–
E34 [9], 12.3 nM	0.535	–
E34 [9], 37 nM	0.702	–
E34 [9], 111.1 nM	0.614	–
E34 [9], 333.3 nM	0.634	–
E34 [9], 1000 nM	0.943	–
E34 [9], 3000 nM	1.08	–
E57 [7], 4.1 nM	–	0.962
E57 [7], 12.3 nM	–	0.998
E57 [7], 37 nM	–	0.997
E57 [7], 111.1 nM	–	1.04
E57 [7], 333.3 nM	–	0.973
E57 [7], 1000 nM	–	0.922
E57 [7], 3000 nM	–	0.988
E57 [14], 4.1 nM	0.709	–
E57 [14], 12.3 nM	0.457	–
E57 [14], 37 nM	0.46	–
E57 [14], 111.1 nM	0.302	–
E57 [14], 333.3 nM	0.722	–
E57 [14], 1000 nM	0.606	–
E57 [14], 3000 nM	1.69	–
FT3469 [3], 4.1 nM	–	0.871
FT3469 [3], 12.3 nM	–	1.12
FT3469 [3], 37 nM	–	0.948
FT3469 [3], 111.1 nM	–	1.08
FT3469 [3], 333.3 nM	–	1.01
FT3469 [3], 1000 nM	–	0.829
FT3469 [3], 3000 nM	–	0.787
FT3469 [10], 4.1 nM	1.14	–
FT3469 [10], 12.3 nM	1.57	–
FT3469 [10], 37 nM	0.375	–
FT3469 [10], 111.1 nM	0.556	–
FT3469 [10], 333.3 nM	0.563	–
FT3469 [10], 1000 nM	0.69	–
FT3469 [10], 3000 nM	1.37	–
